Reference: patent US10364256B2 (GlaxoSmithKline Intellectual Property Development Limited, priority 2015, dated 2019)

Tests used:
[1] = test system: NQO1 specific enzyme activity in BEAS-2B cells (marker for NRF2 activation); test: BEAS-2B NQO1 MTT Assay; type: cell-based; details: Homo sapiens, compound incubated 48 hours, read-out: EC50 (NQO1 specific enzyme activity induction)
Source text: BEAS-2B NQO1 MTT Assay NAD(P)H:quinone oxidoreductase 1 (NQO1), also called DT diaphorase, is a homodimeric FAD-containing enzyme that catalyzes obligatory NAD(P)H-dependent two-electron reductions of quinones and protects cells against the toxic and neoplastic effects of free radicals and reactive oxygen species arising from one-electron reductions. The transcription of NQO1 is finely regulated by NRF2, and thus NQO1 activity is a good marker for NRF2 activation. On day one, frozen BEAS-2B cells (ATCC) are thawed in a water bath, counted, and re-suspended at a concentration of 250,000 cells/mL. Fifty microliters of cells are plated in 384 well black clear-bottomed plates. Plates are incubated at 37° C., 5% CO2 overnight. On day two, plates are centrifuged and 50 nL of compound or controls are added to the cells. Plates are then incubated at 37° C., 5% CO2 for 48 hours. On day four, medium is aspirated from the plate and crude cell lysates are made by adding 13 uL of 1× Cell Signaling Technologies lysis buffer with 1 Complete, Mini, EDTA-free Protease Inhibitor Tablet (Roche) for each 10 mL of lysis buffer. After lysis plates are incubated for 20 minutes at room temperature. Two microliters of lysate are removed for use in Cell Titer Glo assay (Promega) and MTT cocktail is prepared (Prochaska et. al. 1998) for measurement of NQO1 activity. Fifty microliters of MTT cocktail is added to each well, plate is centrifuged, and analyzed on an Envision plate reader (Perkin Elmer) using Absorbance 570 nm label for 30 minutes. Product formation is measured kinetically and the pEC50 of NQO1 specific activity induction is calculated by plotting the change in absorbance (Delta OD/min) versus the log of compound concentration followed by 3-parameter fitting. pEC50 is the negative log of the EC50.

[2] = target: T1, full length Keap1 protein / full length NRF2 protein (Homo sapiens, UniProt Q14145); test: NRF2-Keap1 TR-FRET Low Protein Assay; type: binding; details: 1.25 nM Keap1 FlagHis and 2.5 nM biotin-NRF2 added
T1 construct: full length NRF2 protein and full length Keap1 protein (Keap1 exists a dimer) are used; His
T1 sequence (Q14145 whole entry): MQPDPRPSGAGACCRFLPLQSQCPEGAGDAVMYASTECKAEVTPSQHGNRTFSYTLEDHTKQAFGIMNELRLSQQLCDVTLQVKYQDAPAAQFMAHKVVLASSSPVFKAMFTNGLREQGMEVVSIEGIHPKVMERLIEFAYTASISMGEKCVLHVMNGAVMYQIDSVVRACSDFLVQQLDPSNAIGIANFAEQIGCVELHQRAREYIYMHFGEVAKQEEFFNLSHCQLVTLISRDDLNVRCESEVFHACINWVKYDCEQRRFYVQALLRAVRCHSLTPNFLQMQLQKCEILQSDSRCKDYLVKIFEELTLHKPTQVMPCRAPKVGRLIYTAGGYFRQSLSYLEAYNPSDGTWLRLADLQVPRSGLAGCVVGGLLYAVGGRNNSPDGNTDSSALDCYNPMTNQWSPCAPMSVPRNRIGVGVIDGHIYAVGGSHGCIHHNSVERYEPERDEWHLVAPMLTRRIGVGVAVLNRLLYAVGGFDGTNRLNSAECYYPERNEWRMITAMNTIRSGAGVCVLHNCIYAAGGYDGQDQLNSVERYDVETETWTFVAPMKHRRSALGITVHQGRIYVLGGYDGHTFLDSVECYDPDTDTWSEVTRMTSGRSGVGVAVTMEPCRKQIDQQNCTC
Source text: NRF2-Keap1 TR-FRET Low Protein Assay In the NRF2-Keap1 TR-FRET (time-resolved fluorescence resonance energy transfer) low protein assay, full length NRF2 protein and full length Keap1 protein (Keap1 exists a dimer) are used. The assay detects a compound's ability to displace the binding of Keap1 […] with biotinylated Avi-NRF2 protein. Biotin-NRF2 binds to streptavidin-europium (a component of the detection mix) and Keap1 […] is recognized by anti-Flag APC (allophycocyanin) antibody (also a component of the detection mix). If binding occurs between the two proteins, there will be an energy transfer from the Eu+3 (donor) at 615 nm to the APC (acceptor) at 665 nm. A potential NRF2 inhibitor will cause a reduction in the TR-FRET signal by interfering with the binding of Keap1 to NRF2. Ten nanoliters of 100× compound dose response curves (serial 3-fold dilutions) in DMSO are stamped using an Echo liquid handling system (Labcyte) into 384-well, low volume, black assay plates (Greiner, #784076), with DMSO in columns 6 and 18. An additional 90 nl DMSO is added to each well, to bring the total volume to 100 nl per well. The top concentration of compound is located in columns 1 and 13, with the serial dilutions going across the row. All reagents are diluted in assay buffer (50 mM Tris, pH 8.0, 5 mM MgCl2, 100 mM NaCl, 0.005% BSA, 1 mM DTT, and 2 mM CHAPS. The BSA, DTT, and CHAPS are added to the assay buffer on the day of assay. […] Wells in column 18 receive 5 ul of assay buffer instead. Plates are centrifuged at 500 rpm for 1 minute, covered with a plate lid, and incubated at 37° C. for 2.25 hours. Plates are then removed from the incubator and allowed to cool to RT for 15 minutes. Five microliters of 2.5 nM biotin-NRF2 protein is then added to all wells of the plates and the plates are spun at 500 rpm for 1 minute, followed by incubating at 4° C. for 1.25 hours. The plates are then allowed to warm to RT for 15 minutes, followed by the addition of 10 ul of detection mix (1 nM Streptavidin Eu+W1024 and 5 ug/ml mouse anti-DYKDDDDK IgG conjugated to SureLight APC antibody; both from Columbia Biosciences) to all wells. Plates are spun at 500 rpm for 1 minute, incubated for 1 hour at RT, and read on an Envision plate reader using a 320 nm excitation filter and 615 nm and 665 nm emission filters. […] Data analysis is handled using the software package Abase XE (Surrey, United Kingdom). […] For calculation of pIC50s, Abase XE uses a four parameter equation. pIC50 is the negative log of the IC50.

[3] = target: T2, Keap1 Kelch domain (321-609) / TAMRA-labeled 16mer NRF2 peptide (ETGE motif) (Homo sapiens, UniProt Q14145); test: NRF2-Keap1 FP Assay (Keap1 Kelch fluorescence polarization); type: binding; details: 20 nM Keap1 (321-609), 8 nM Tamra labeled peptide
T2 construct: the Kelch domain (321-609) of Keap1 is used
T2 sequence (Q14145 321-609): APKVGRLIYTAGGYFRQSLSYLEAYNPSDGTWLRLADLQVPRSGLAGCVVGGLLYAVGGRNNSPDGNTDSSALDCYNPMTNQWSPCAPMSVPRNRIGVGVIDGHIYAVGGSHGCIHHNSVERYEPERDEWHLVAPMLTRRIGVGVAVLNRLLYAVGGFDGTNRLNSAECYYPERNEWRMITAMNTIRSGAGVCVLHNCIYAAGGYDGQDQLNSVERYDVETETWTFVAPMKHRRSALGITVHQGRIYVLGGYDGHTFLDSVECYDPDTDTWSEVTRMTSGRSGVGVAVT
Source text: One model for the NRF2-Keap1 interaction is through two binding sites in the Neh2 domain on NRF2. The two sites are referred to as the DLG binding motif (latch domain, uM affinity) and the ETGE binding motif (hinge domain, nM affinity). The Keap1 protein consists of an N-terminal region (NTR), a broad complex, tramtrack, and brick a′ brac domain (BTB), an intervening region (IVR), a double glycine repeat domain (DGR or Kelch), and a C-terminal region. The DLG and ETGE motifs of NRF2's Neh2 domain bind to the Kelch domain of Keap1 at different affinities. In the Keap1 Kelch fluorescence polarization (FP) assay, a TAMRA-labeled 16mer peptide (AFFAQLQLDEETGEFL) containing the ETGE motif of NRF2 and the Kelch domain (321-609) of Keap1 is used. The assay determines if a compound interferes with the binding between Keap1 […] and the TAMRA-labeled peptide. Binding of TAMRA-labeled NRF2 peptide to Keap1 (321-609) results in a high FP signal. If a compound interferes with the binding between the peptide and the protein, it will cause the assay signal to decrease. Thus, assay signal is inversely proportional to binding inhibition.
100 nl of 100× compound dose response curves (serial 3-fold dilutions) in DMSO are stamped using an Echo liquid handling system (Labcyte) into 384-well low volume black assay plates (Greiner, #784076), with DMSO in columns 6 and 18. The top concentration of compound is located in columns 1 and 13. Keap1 (321-609) is diluted to 40 nM (2×) in 1× assay buffer (50 mM Tris, pH 8.0, 100 mM NaCl, 5 mM MgCl2, 1 mM DTT, 2 mM CHAPS, and 0.005% BSA) and 5 ul is added using a Multidrop Combi (Thermo Electron Corporation) equipped with a metal tip dispenser to all wells of the compound plate, except column 18. Column 18 receives only 5 ul of assay buffer. Immediately, 5 uL of 16 nM (2×) of Tamra labeled peptide (AFFAQLQLDEETGEFL, 21st Century Biochemicals) is added to all wells of the plate. The plates are spun at 500 rpm for 1 min, incubated for 1 hr at room temperature, and read on an Analyst GT (Molecular Devices) equipped with excitation (530/25 nm) and emission (580/10 nm) filters designed for Tamra probes. A 561 nm dichroic mirror is also used in the Analyst. The final assay concentrations of Keap1 (321-609) and Tamra labeled peptide are 20 nM and 8 nM, respectively. Fluorescence measurements, represented as mP, are used in the transformation of the data. Compound activity is calculated based on percent inhibition, normalized against controls in the assay (Control 1 contains the Tamra peptide and Keap1 (321-609) together (0% response) and control 2 contains the Tamra peptide alone (100% response)). Data analysis is handled using the software package Abase XE (Surrey, United Kingdom. The % inhibition values are calculated by the equation: 100−(100*((compound response−average control 2)/(average control 1−average control2))). For calculation of pIC50s, Abase XE uses a four parameter equation. pIC50 is the negative log of the IC50.

IC50 [2] [nM] | IC50 [3] [nM] | Compound | EC50 [1] [nM]
1000 to 10000 | 1000 to 10000 | Cc1c(O[C@@H](C)C2CCCCC2)cccc1-c1cccc(-n2ncc(C(=O)O)c2[C@H]2C[C@@H]2c2cn(C)nn2)c1 (racemic) [Example 71, 1-(3′-((S)-1-Cyclohexylethoxy)-2′-methyl-[1,1′-biphenyl]-3-yl)-5-(trans-2-(1-methyl-1H-1,2,3-triazol-4-yl)cyclopropyl)-1H-pyrazole-4-carboxylic Acid] | 1000 to 10000
100 to 1000 | 100 to 1000 | Cc1c(OCC2CCCCC2)cccc1-c1cccc(-n2ncc(C(=O)O)c2[C@H]2C[C@@H]2c2cn(C)nn2)c1 (racemic) [Example 72, 1-(3′-(Cyclohexylmethoxy)-2′-methyl-[1,1′-biphenyl]-3-yl)-5-(trans-2-(1-methyl-1H-1,2,3-triazol-4-yl)cyclopropyl)-1H-pyrazole-4-carboxylic Acid] | 10 to 100
10 to 100 | 10 to 100 | CCn1cc([C@@H]2C[C@H]2c2c(C(=O)O)cnn2-c2cccc(-c3cccc(O[C@@H](C)C4CCCCC4)c3)c2)nn1 (racemic) [Example 76, 1-(3′-((S)-1-Cyclohexylethoxy)-[1,1′-biphenyl]-3-yl)-5-(trans-2-(1-ethyl-1H-1,2,3-triazol-4-yl)cyclopropyl)-1H-pyrazole-4-carboxylic acid] | 1 to 10
10 to 100 | 10 to 100 | C[C@H](Oc1cccc(-c2cccc(-n3ncc(C(=O)O)c3[C@@H]3C[C@H]3c3cn(C4CCC4)nn3)c2)c1)C1CCCCC1 (racemic) [Example 78, 5-(trans-2-(1-Cyclobutyl-1H-1,2,3-triazol-4-yl)cyclopropyl)-1-(3′-((S)-1-cyclohexylethoxy)-[1,1′-biphenyl]-3-yl)-1H-pyrazole-4-carboxylic acid] | 1 to 10

Second part, the compound before the results:

Compound | IC50 [2] [nM] | IC50 [3] [nM] | EC50 [1] [nM]
C[C@H](Oc1cccc(-c2cccc(-n3ncc(C(=O)O)c3[C@@H]3C[C@H]3c3cn(C4COC4)nn3)c2)c1)C1CCCCC1 (racemic) [Example 77, 1-(3′-((S)-1-Cyclohexylethoxy)-[1,1′-biphenyl]-3-yl)-5-(trans-2-(1-(oxetan-3-yl)-1H-1,2,3-triazol-4-yl)cyclopropyl)-1H-pyrazole-4-carboxylic acid] | 10 to 100 | 10 to 100 | 10 to 100
C[C@H](Oc1cccc(-c2cccc(-n3ncc(C(=O)O)c3[C@@H]3C[C@H]3c3cn(C4CN(C(=O)OC(C)(C)C)C4)nn3)c2)c1)C1CCCCC1 (racemic) [Example 80, 5-(trans-2-(1-(1-(tert-Butoxycarbonyl)azetidin-3-yl)-1H-1,2,3-triazol-4-yl)cyclopropyl)-1-(3′-((S)-1-cyclohexylethoxy)-[1,1′-biphenyl]-3-yl)-1H-pyrazole-4-carboxylic acid] | 10 to 100 | 100 to 1000 | 10 to 100
C[C@H](Oc1cccc(-c2cccc(-n3ncc(C(=O)O)c3[C@@H]3C[C@H]3c3cn(C4CCN(C(=O)OC(C)(C)C)CC4)nn3)c2)c1)C1CCCCC1 (racemic) [Example 81, 5-(trans-2-(1-(1-(tert-Butoxycarbonyl)piperidin-4-yl)-1H-1,2,3-triazol-4-yl)cyclopropyl)-1-(3′-((S)-1-cyclohexylethoxy)-[1,1′-biphenyl]-3-yl)-1H-pyrazole-4-carboxylic acid] | 100 to 1000 | 100 to 1000 | 10 to 100
C[C@H](Oc1cccc(-c2cccc(-n3ncc(C(=O)O)c3[C@@H]3C[C@H]3c3cn(C4CCN(C)CC4)nn3)c2)c1)C1CCCCC1 (racemic) [Example 82, 1-(3′-((S)-1-Cyclohexylethoxy)-[1,1′-biphenyl]-3-yl)-5-(trans-2-(1-(1-methylpiperidin-4-yl)-1H-1,2,3-triazol-4-yl)cyclopropyl)-1H-pyrazole-4-carboxylic acid] | 10 to 100 | 10 to 100 | 10 to 100
C[C@H](Oc1cccc(-c2cccc(-n3ncc(C(=O)O)c3[C@@H]3C[C@H]3c3cn(C4CCCCC4)nn3)c2)c1)C1CCCCC1 (racemic) [Example 84, 5-(trans-2-(1-Cyclohexyl-1H-1,2,3-triazol-4-yl)cyclopropyl)-1-(3′-((S)-1-cyclohexylethoxy)-[1,1′-biphenyl]-3-yl)-1H-pyrazole-4-carboxylic acid] | 10 to 100 | 100 to 1000 | 10 to 100
